Literature values, collected in patent US8338613B2, “Process for the preparation of bidentate schiff base ruthenium catalysts containing a salicylaldimine-type ligand” (RIMTEC Corporation, priority 2009, dated 2012).

Conditions: in water (for Ag2CO3)

pKb, about 3.69:
O=C([O-])[O-].[Na+].[Na+] [Na2CO3], O=C([O-])[O-].[K+].[K+] [K2CO3], O=C([O-])[O-].[Li+].[Li+] [Li2CO3], O=C([O-])[O-].[Cu+2] [CuCO3]
